# Results from patent US20140314854A1, “METHODS AND COMPOSITIONS FOR RNAi-BASED CANCER TREATMENT” (Silenseed Ltd., priority 2013, published 2014).
# pIC50: −log10 of the molar value.
# Key:
# Panc1 cells [1] = format: cell-based, human
# Procedure: FIG. 18. Chart showing viability of Panc1 cells. Vertical axis: viability as a percentage of the viability of mock-transfected cells, 72 hours following transfection with the indicated siRNA. Dotted line indicates 50% reduction in viability. For all the differences, p<0.05 relative to the mock-transfected cells.
# The effect of siRNA-mediated down-regulation of EMT-related genes on viability of Panc1 cancer cells was measured as follows: siRNAs targeting the indicated genes, namely SLUG (SNAI2), SNAI1 TWIST, Zeb1, Zeb2, Goosecoid, and E12 (TCF3), were designed and synthetized by IDT-Syntezza, using 2 different siRNA's per target (Table 3). Panc1 cells were transfected with the siRNAs using Lipofectamine®. 72 hrs post-transfection, cell viability was tested by Methylene blue (MB) assay. Gemzar® was used as a positive control for cell killing.
# Panc1 cells [2] = experiment: Cell viability by Methylene Blue test, siRNA alone and with Gemzar; format: cell-based, human; conditions: 72 h; 1 hr of treatment with 10 μM Gemzar after transfection
# Procedure: FIG. 15. Gemzar® enhances siG12D-DDD effect. Panc1 cells were transfected using Lipofectamine™ with unmodified and modified siG12D and a scrambled (non-targeting) siRNA control molecule or were mock transfected (no siRNA). Cell viability was assessed 72 hrs post-transfection by the Methylene Blue (MB) test. Additional groups were transfected as described above, followed by 1 hr of treatment with 10 μM Gemzar®. The numbers 1-4 in the last column relate to the percent of inhibition of cellular growth, wherein the inhibition seen with the unmodified siRNA was assigned the value of 100%. 4, 3, 2, and 1 refer respectively to 75-100%, 50-75%, 25-50%, and 0-25% of the inhibition seen with the unmodified siRNA.
# Experimental procedure: Panc1 cells were transfected using Lipofectamine™ with unmodified and modified siG12D and a scrambled (non-targeting) siRNA control molecule or were mock transfected (no siRNA). Cell viability was assessed 72 hrs post-transfection by the Methylene Blue (MB) test. Additional groups were transfected as described above, followed by 1 hr of treatment with 10 μM Gemzar®. At the exemplary time point of 72 h, Gemzar® enhanced the effect of siG12D by nearly 10% (FIG. 15). […] Other time points, for example 48h, 72 h, 96 h and 120 h, may be utilized in additional studies.
# K-ras mRNA = conditions: read-out: K-ras mRNA levels, half-maximal inhibitory concentration (IC50); Panc1 cells transfected; Real-Time PCR, HPRT and UBC endogenous controls
# Procedure: Panc1 cells, human pancreatic carcinoma cells that carry the […] in the K-ras gene, were mock-transfected or transfected with siG12D or control scrambled siRNA (si-scr). The relative K-ras mRNA levels were assessed by Real-Time PCR, with Hypoxantine PhosphoRybosyl Transferase (HPRT) and Ubiquitin C (UBC) used as endogenous controls.
# normal mice = experiment: Toxicity study of LODER-driven siRNA in normal mice; format: in vivo; conditions: intraperitoneally injected
# Procedure: (§1) To study the toxic potential of the LODER-driven siRNA, we compared the effect of the siG12D LODER (16, 32 and 64 μg siG12D/kg weight) to that of the empty LODER and to sham-operated or untreated animals. LODERs were implanted into the pancreas of normal mice and rats, both males and females of both species. In parallel, the same and higher doses of siG12D were intraperitoneally injected into normal mice and rats (16, 160 and 320 μg siG12D/kg weight). The duration of this study was 2 weeks in mice and 8 weeks in rats. […] Based on the lack of adverse reaction following siRNA treatment, the maximum dose of 0.32 mg siRNA/kg body weight was considered as not constituting an acute toxicity risk.
# normal rats = experiment: Toxicity study of LODER-driven siRNA in normal rats; format: in vivo; conditions: intraperitoneally injected
# Procedure: as §1
# PancO2 cell = PancO2 cell growth in vitro; format: cell-based, mouse
# Akt = experiment: Orthotopic Panc1-LUC tumors, Akt immunohistochemistry; format: in vivo, human; conditions: 39 days post-treatment, IH
# Procedure: For this purpose, Panc1-LUC or Capan1-LUC cells were injected into the tail of the mouse pancreas via an incision. Tumor development was assessed by in vivo Luciferase activity. […] Two LODERs were stitched to the pancreatic tumor via a laparotomy.
# Here, tumor tissues were tested from mice bearing pancreatic Panc1-LUC-derived tumors from 4 treatment groups: untreated, injected with siG12D or implanted with empty LODERs or siG12D LODERs. Thirty nine days post-treatment, we performed IH analysis of tumor tissues for Akt and ERK.
# Panc1 cells [3] = experiment: Migration assay (modified Boyden chamber); format: cell-based, human; conditions: transfected cells, relative to untreated cells
# Panc-1 cells = experiment: Scratch assay; format: cell-based, human; conditions: after 24 hours, light microscopy
# Procedure: FIG. 7. siG12D reduces EMT in Panc1 cells. A. Migration assay. Panc-1 cells were transfected with siG12D or non-targeting control (scrambled) or were treated with TGFβ (positive control). The migration ability was assessed using a modified Boyden chamber assay. The percentage of migrated cells relative to untreated cells is presented. B. Scratch assay. Panc-1 cells were mock-transfected or transfected in vitro with scrambled siRNA or siG12D, then were seeded in 6 W plates. After 24 hours, the cells were reseeded in 24 W plates to form a confluent culture. One day after reseeding, the cells were scratched with a plastic tip. […]
# FIG. 8. Light microscopy images of migration of siG12D-DDD treated cells in a scratch assay, showing the inhibitory effect of siG12D on cellular migration.
# In order to study the effects of siG12D on the EMT process and its consequent increased cellular migration and motility, we conducted a series of experiments in which we examined different aspects of this process. We analyzed the migration characteristics of Panc1 cells following transfection with siG12D or scrambled siRNA, using the scratch and transwell-migration assays. TGF-β was used as a positive control. […] To test migration through a scratch assay. […]
# Zeb1, Slug, E-Cadherin = experiment: Expression of genes characteristic of EMT; format: cell-based, human; conditions: in vitro, normalized to the untreated cells
# Description: FIG. 9. Effect of the siG12DDDD on expression levels of metastasis-facilitating genes. Expression levels are normalized to the untreated cells.
# Treatment of siG12D in vitro was followed by measurement of genes whose expression (high or low) is characteristic of EMT.
# P-Erk = experiment: Western blot of KRAS downstream effector P-Erk; format: cell-based, human; conditions: 36 hrs after transfection, normalized to β-actin
# Description: (§2) FIG. 19. Treatment with anti-k-ras siRNA reduces levels of downstream effector proteins. Panc1 cells were left untreated (u/t) or transiently transfected with siG12D, non-targeting scrambled siRNA (si-scr) or mock transfected. A. Shown are representative blots of KRAS, P-Erk, P-Akt, and β-actin. B. Quantitation of protein expression, expressed as average±S.E.M. Numbers were normalized to the level of β-actin, then the resulting number was normalized to the expression in scrambled siRNA-transfected cells, which was set as 100%. Student's t-test was used to calculate(p) compared to mock-transfected cells.
# (§3) To confirm the specific action of siG12D on the K-ras signaling pathway, KRAS, level of activation of the KRAS downstream effectors ERK and Akt was measured following treatment with siG12D. […] 36 hrs after transfection, cells were lysed and relative levels of KRAS, P-Erk and P-Akt proteins were assessed by Western blot analysis. […]
# (§4) Western blot assays were carried by homogenizing cells in lysis buffer A (0.25M sucrose, 20 mM Tris pH 7.6, 1.5 mM MgCl2, 10% glycerol, 1 mM EDTA and “cOmplete mini” protein inhibitor cocktail (Roche Diagnostics)), incubated on ice for 10 min, centrifuged at 12,000 rpm for 15 min at 4° C., and supernatants were collected. […] Results are expressed as ratio of protein of interest/β-actin to correct for amount of protein loaded in each sample.
# P-Akt = experiment: Western blot of KRAS downstream effector P-Akt; format: cell-based, human; conditions: 36 hrs after transfection, normalized to β-actin
# Description: as §2, §3, §4
compound,measurement,setting,value
"TCF3-1: siRNA targeting E12 (TCF3); sense cuccuggacuucagcaugadTdT, antisense ucaugcugaaguccaggagdTdT; SEQ ID No's 131-132 (sense CUCCUGGACUUCAGCAUGATT; antisense UCAUGCUGAAGUCCAGGAGTT; DNA at 20, 21, other sugars and backbone not given here)",reduction in viability,Panc1 cells [1],greater than 50%
"Nc1ccn([C@@H]2O[C@H](CO)[C@@H](O)C2(F)F)c(=O)n1 [Gemzar®, 2′,2′-difluorodeoxycytidine]",enhancement of the effect of siG12D on cell viability,Panc1 cells [2],~10%
"Zeb1-2: siRNA targeting Zeb1; sense cagguguaagcgcagaaagdTdT, antisense cuuucugcgcuuacaccugdTdT; SEQ ID No's 112-113 (sense CAGGUGUAAGCGCAGAAAGTT; antisense CUUUCUGCGCUUACACCUGTT; DNA at 20, 21, other sugars and backbone not given here)",reduction in viability,Panc1 cells [1],~50%
"siG12D: siRNA against K-ras G12D; sense GUUGGAGCUGAUGGCGUAGdTdT, antisense CUACGCCAUCAGCUCCAACdTdT (SEQ ID No: 41-42) (sense GUUGGAGCUGAUGGCGUAGTT; antisense CUACGCCAUCAGCUCCAACTT; DNA at 20, 21, other sugars and backbone not given here)",pIC50,K-ras mRNA,10.17
same,maximum dose considered as not constituting an acute toxicity risk,normal mice,0.32 mg siRNA/kg body weight
same,maximum dose considered as not constituting an acute toxicity risk,normal rats,0.32 mg siRNA/kg body weight
same,PancO2 cell growth,PancO2 cell,inhibited PancO2 cell growth to a similar extent as Panc1 cells
same,Akt phosphorylation,Akt,induced
same,inhibition of Panc1 migration,Panc1 cells [3],more than 30%
same,migration in scratch assay,Panc-1 cells,barely migrated
same,expression of epithelial genes (E-Cadherin),"Zeb1, Slug, E-Cadherin",augmented expression
same,expression of mesenchymal genes (Zeb1 and Slug),"Zeb1, Slug, E-Cadherin",reduced expression
same,reduction in viability,Panc1 cells [1],~50%
same,level of P-Erk,P-Erk,decreased
same,level of P-Akt,P-Akt,decreased
"SNAI1-2: siRNA targeting SNAI1; sense augcacauccgaagccacadTdT, antisense uguggcuucggaugugcaudTdT; SEQ ID No's 124-125",reduction in viability,Panc1 cells [1],greater than 50%
"TWIST-2: siRNA targeting TWIST; sense ggugugcguccagccguugdTdT, antisense caacggcuggacgcacaccdTdT; SEQ ID No's 108-109 (sense GGUGUGCGUCCAGCCGUUGTT; antisense CAACGGCUGGACGCACACCTT; DNA at 20, 21, other sugars and backbone not given here)",reduction in viability,Panc1 cells [1],greater than 50%
"Goosecoid-1: siRNA targeting Goosecoid; sense agcauguucagcaucgacadTdT, antisense ugucgaugcugaacaugcudTdT; SEQ ID No's 127-128 (sense AGCAUGUUCAGCAUCGACATT; antisense UGUCGAUGCUGAACAUGCUTT; DNA at 20, 21, other sugars and backbone not given here)",reduction in viability,Panc1 cells [1],~50%
"SNAI2-2: siRNA targeting SLUG (SNAI2); sense cuggucaagaagcauuucadTdT, antisense ugaaaugcuucuugaccagdTdT; SEQ ID No's 104-105 (sense CUGGUCAAGAAGCAUUUCATT; antisense UGAAAUGCUUCUUGACCAGTT; DNA at 20, 21, other sugars and backbone not given here)",reduction in viability,Panc1 cells [1],~50%
